Results reported in article PMC8359946, “Expanding the Substrate Scope of Nitrating Cytochrome P450 TxtE by Active Site Engineering of a Reductase Fusion” (Chembiochem, 2021).

Experiments:
[1] = biological target: T1, TxtE (His6-TxtE-BM3R fusion) (Streptomyces scabiei, UniProt C9ZDC6); experiment: UV-Vis difference spectroscopy titration; purified-enzyme nitration assay; format: binding
T1 construct: His6-TxtE-BM3R fusion with the full length heme-reductase linker (27 aa) from CYP102A1

[2] = biological target: T2, TxtE (His6-TxtE-BM3R fusion) (Streptomyces scabiei, UniProt C9ZDC6, R59C); experiment: UV-Vis difference spectrum (type II); LC-MS nitration assay with purified enzyme; format: binding
T2 construct: His6-TxtE-BM3R(R59C)

| SMILES | Kd [1] [µM] | UV-Vis difference spectrum (type II); LC-MS nitration assay with purified enzyme [2] |
| --- | --- | --- |
| N[C@@H](Cc1c[nH]c2ccccc12)C(=O)O [L-tryptophan] | 84 ± 2 |  |
| NCCc1c[nH]c2ccccc12 [compound 1, tryptamine] |  | a similar spectrum is observed for binding of tryptamine to His6‐TxtE‐BMR3(R59C) |
